Measured values published in patent US8158657B2, “Heterocycles substituted pyridine derivatives and antifungal agent containing thereof” (Eisai R&D Management Co., Ltd., priority 2005, dated 2012).
In brackets after ≈: the same amount, converted by molar mass.

Experiments:
[1] = system: C. albicans CAF2-1 strain; test: Anti-Candida activity, MIC measurement; format: cell-based; conditions: CAF21STRAIN, C. albicans CAF2-1, RPMI1640, 42-48 hours at 35° C., visual inspection, read-out: Anti-Candida Activity (minimum inhibitory concentration, MIC)
Experimental: (§1) For the C. albicans CAF2-1 strain, a fungal suspension from a standing culture for 48 hours at 30° C. in a Sabouraud dextrose liquid culture medium (SDB) was diluted with RPMI1640 medium to adjust a fungal suspension of 1.2×10^3 cells/mL. For the A. fumigatus Tsukuba strain, −80° C. stored strain was diluted with RPMI1640 medium to adjust to a fungal suspension of 4.5×10^3 cells/mL.
(§2) Using a U-bottomed 96 well plate, 8 samples/plate (A to H) of sample dilution solutions were prepared. On the 2nd to 12th rows were dispensed 10 μL of dimethyl sulfoxide solution. Weighted sample was dissolved in dimethyl sulfoxide to prepare a 2.5 mg/mL solution, 20 μL of this solution was added to the first row of the prepared plate, and 12 steps of two-fold step dilutions (10 μL of solution+10 μL of dimethyl sulfoxide solution) were performed on the plate. This sample dilution solution was dispensed in the amount of 1 μL to a flat-bottomed 96 well plate for MIC measurement to prepare a sample dilution plate.
(§3) The fungal suspension prepared in (1) was used in the amount of 99 μL/well to inoculate the flat-bottomed 96 well plate containing 1 μL/well of the test compound dilution prepared in (2), and a standing culture was carried out aerobically for 42-48 hours at 35° C.

[2] = system: A. fumigatus Tsukuba strain; test: Anti-Aspergillus activity, MIC measurement; format: cell-based; conditions: RPMI1640, 42-48 hours at 35° C., visual inspection, read-out: Anti-Aspergillus Activity (minimum inhibitory concentration, MIC)
Experimental: as §1, §2, §3

Row | Compound | MIC [1] [µg/mL] | MIC [2] [µg/mL]
1 | Nc1ncccc1-c1cc(Cc2ccc(Oc3cccc(F)c3)nc2)no1 [Example 71, 3-(3-(6-(3-Fluoro-phenoxy)-pyridin-3-ylmethyl)-isoxazol-5-yl)-pyridin-2-ylamine] | 0.2 (≈ 0.552 µM) | 0.39 (≈ 1.08 µM)
2 | Nc1ncccc1-c1cc(Cc2ccc(COc3ccc(F)cc3)nc2)no1 [Example 72, 3-(3-(6-(4-Fluoro-phenoxymethyl)-pyridin-3-ylmethyl)-isoxazol-5-yl)pyridin-2-ylamine] | 6.25 (≈ 16.6 µM) | 12.5 (≈ 33.2 µM)
3 | Nc1ncccc1-c1cc(Cc2ccc(Oc3ccccc3F)nc2)no1 [Example 74, 3-(3-(6-(2-Fluoro-phenoxy)-pyridin-3-ylmethyl)-isoxazol-5-yl)-pyridin-2-ylamin] | 0.1 (≈ 0.276 µM) | 0.2 (≈ 0.552 µM)
4 | Nc1ncccc1-c1cc(Cc2ccc(Oc3ccc(F)cc3)nc2)no1 [Example 75, 3-(3-(6-(4-Fluoro-phenoxy)-pyridin-3-ylmethyl)-isoxazol-5-yl)-pyridin-2-ylamine] | 0.78 (≈ 2.15 µM) | 0.2 (≈ 0.552 µM)
5 | Nc1ncccc1-c1cc(Cc2ccc(Oc3cccnc3)cc2)no1 [Example 76, 3-(3-(4-(Pyridin-3-yloxy)-benzyl)-isoxazol-5-yl)-pyridin-2-ylamine] | 1.56 (≈ 4.53 µM) | 1.56 (≈ 4.53 µM)
6 | Nc1ncccc1-c1cc(Cc2ccc(OCc3ccsc3)cc2)no1 [Example 77, 3-(3-(4-(Thiophen-3-ylmethoxy)-benzyl)-isoxazol-5-yl)-pyridin-2-ylamine] | 0.2 (≈ 0.55 µM) | 0.39 (≈ 1.07 µM)
7 | Nc1ncccc1-c1cc(Cc2ccc(OC3CCCC3)cc2)no1 [Example 78, 3-(3-(4-Cyclopentyloxy-benzyl)-isoxazol-5-yl)-pyridin-2-ylamine] | 0.78 (≈ 2.33 µM) | 1.56 (≈ 4.65 µM)
8 | Nc1ncccc1-c1cc(Cc2ccc(OC3CCCCC3)cc2)no1 [Example 79, 3-(3-(4-Cyclohexyloxy-benzyl)-isoxazol-5-yl)-pyridin-2-ylamine] | 1.56 (≈ 4.46 µM) | 6.25 (≈ 17.9 µM)
9 | Nc1ncccc1-c1cc(Cc2ccc(CCc3ccco3)cc2)no1 [Example 80, 3-(3-(4-(2-Furan-2-yl-ethyl)-benzyl)-isoxazol-5-yl)-pyridin-2-ylamine] | 0.2 (≈ 0.579 µM) | 0.78 (≈ 2.26 µM)
10 | Nc1ncccc1-c1cc(Cc2ccc(Oc3cccc(F)c3)cc2)no1 [Example 81, 3-(3-(4-(3-Fluoro-phenoxy)-benzyl)-isoxazol-5-yl)-pyridin-2-ylamine] | 0.2 (≈ 0.553 µM) | 0.39 (≈ 1.08 µM)
11 | Nc1ncccc1-c1cc(Cc2ccc(CCC3CCCO3)cc2)no1 (stereo not shown) [Example 82, 3-(3-(4-(2-(Tetrahydrofuran-2-yl)-ethyl)-benzyl)-isoxazol-5-yl)-pyridin-2-ylamine] | 0.2 (≈ 0.572 µM) | 0.39 (≈ 1.12 µM)
12 | Nc1ncccc1-c1cc(Cc2ccc(Oc3ccccc3F)cc2)no1 [Example 83] | 0.2 (≈ 0.553 µM) | 0.2 (≈ 0.553 µM)
13 | Nc1ncccc1-c1cc(Cc2cccc(-c3ccccn3)c2)no1 [Example 84, 3-(3-(3-Pyridin-2-yl-benzyl)-isoxazol-5-yl)-pyridin-2-ylamine] | 3.13 (≈ 9.53 µM) | > 25
14 | Nc1ncccc1-c1cc(Cc2cccc(-c3ccccc3)c2)no1 [Example 85, 3-(3-Biphenyl-3-ylmethyl-isoxazol-5-yl)-pyridin-2-ylamine] | 1.56 (≈ 4.77 µM) | 3.13 (≈ 9.56 µM)
15 | Nc1ncccc1-c1cc(Cc2ccc(COc3ccccc3)cc2)no1 [Example 86, 3-(3-(4-Phenoxymethyl-benzyl)-isoxazol-5-yl)-pyridin-2-ylamine] | 0.05 (≈ 0.14 µM) | 0.2 (≈ 0.56 µM)
16 | Nc1ncccc1-c1cc(Cc2ccc(OCc3ccccn3)c(F)c2)no1 [Example 87, 3-(3-(3-Fluoro-4-(pyridin-2-ylmethoxy)-benzyl)-isoxazol-5-yl)-pyridin-2-ylamine] | 0.2 (≈ 0.531 µM) | 0.78 (≈ 2.07 µM)
17 | Nc1ncccc1-c1cc(Cc2ccc(OCc3nccs3)cc2)no1 [Example 88, 3-(3-(4-(Thiazol-2-ylmethoxy)-benzyl)-isoxazol-5-yl)-pyridin-2-ylamine] | 0.2 (≈ 0.549 µM) | 0.2 (≈ 0.549 µM)
18 | Nc1ncccc1-c1cc(Cc2ccc(OCc3ccc(F)c(F)c3)nc2)no1 [Example 89, 3-(3-(6-(3,4-Difluoro-benzyloxy)-pyridin-3-ylmethyl)-isoxazol-5-yl)-pyridin-2-ylamine] | 0.39 (≈ 0.989 µM) | 0.2 (≈ 0.507 µM)
19 | Nc1ncccc1-c1cc(Cc2ccc(OCc3ccc(F)cc3F)nc2)no1 [Example 90, 3-(3-(6-(2,4-Difluoro-benzyloxy)-pyridin-3-ylmethyl)-isoxazol-5-yl)-pyridin-2-ylamine] | 1.56 (≈ 3.96 µM) | 0.39 (≈ 0.989 µM)

Row | Compound | MIC [1] [µg/mL] | MIC [2] [µg/mL]
20 | Nc1ncccc1-c1cc(Cc2ccc(Oc3ccc(F)cc3)s2)no1 [Example 91, 3-(3-(5-(4-Fluoro-phenoxy)-thiophen-2-ylmethyl)-isoxazol-5-yl)-pyridin-2-ylamine] | 0.2 (≈ 0.544 µM) | 0.1 (≈ 0.272 µM)
21 | Cc1ccc(Cc2ccc(Cc3cc(-c4cccnc4N)on3)s2)cc1 [Example 92, 3-(3-(5-(4-Methyl-benzyl)-thiophen-2-ylmethyl)-isoxazol-5-yl)-pyridin-2-ylamine] | 0.39 (≈ 1.08 µM) | 0.39 (≈ 1.08 µM)
22 | Nc1ncccc1-c1cc(Cc2ccc(CCc3ccccn3)cc2)no1 [Example 93, 3-(3-(4-(2-Pyridin-2-yl-ethyl)-benzyl)-isoxazol-5-yl)-pyridin-2-ylamine] | 0.2 (≈ 0.561 µM) | 1.56 (≈ 4.38 µM)
23 | Nc1ncccc1-c1cc(Cc2ccc(OCc3ccc(F)cn3)c(F)c2)no1 [Example 94, 3-(3-(3-Fluoro-4-(5-fluoro-pyridin-2-ylmethoxy)-benzyl)-isoxazol-5-yl)pyridin-2-ylamine] | 0.78 (≈ 1.98 µM) | 0.39 (≈ 0.989 µM)
24 | Nc1ncccc1-c1cc(Cc2ccc(OCc3ccccn3)cc2F)no1 [Example 95, 3-(3-(2-Fluoro-4-(pyridin-2-ylmethoxy)-benzyl)-isoxazol-5-yl)-pyridin-2-ylamine] | 0.39 (≈ 1.04 µM) | 1.56 (≈ 4.14 µM)
25 | Nc1ncccc1-c1cc(Cc2ccc(OCc3ccc(F)cn3)cc2F)no1 [Example 96, 3-(3-(2-Fluoro-4-(5-fluoro-pyridin-2-ylmethoxy)-benzyl)-isoxazol-5-yl)pyridin-2-ylamine] | 3.13 (≈ 7.94 µM) | 0.78 (≈ 1.98 µM)
26 | Nc1ncccc1-c1cc(Cc2ccc(Sc3ccccc3)nc2)no1 [Example 97, 3-(3-(6-Phenylsulfanyl-pyridin-3-ylmethyl)-isoxazol-5-yl)-pyridin-2-ylamine] | 0.39 (≈ 1.08 µM) | 0.2 (≈ 0.555 µM)
27 | COc1cccc(COc2ccc(Cc3cc(-c4cccnc4N)on3)cc2)c1 [Example 98, 3-(3-(4-(3-Methoxy-benzyloxy)-benzyl)-isoxazol-5-yl)-pyridin-2-ylamine] | 0.39 (≈ 1.01 µM) | 0.39 (≈ 1.01 µM)
28 | COc1cccc(COc2ccc(Cc3cc(-c4cccnc4N)on3)cc2)n1 [Example 99, 3-(3-(4-(6-Methoxy-pyridin-2-ylmethoxy)-benzyl)-isoxazol-5-yl)-pyridin-2-ylamine] | 3.13 (≈ 8.06 µM) | 0.78 (≈ 2.01 µM)
29 | Nc1ncccc1-c1cc(Cc2ccc(Oc3cccnc3)nc2)no1 [Example 100, 3-(3-(6-(Pyridin-3-yloxy)-pyridin-3-ylmethyl)-isoxazol-5-yl)-pyrindin-2-ylamine] | 3.13 (≈ 9.06 µM) | 6.25 (≈ 18.1 µM)
30 | Cc1ccc(COc2ccc(Cc3cc(-c4ccc(N)nc4N)on3)cc2)nc1 [Example 101] | 1.56 (≈ 4.03 µM) | 1.56 (≈ 4.03 µM)
31 | Cc1ccc(OCc2ccc(Cc3cc(-c4ccc(N)nc4N)on3)cc2)nc1 [Example 103, 3-(3-(4-(5-Methyl-pyridin-2-yloxymethyl)-benzyl)-isoxazol-5-yl)-pyridin-2,6-diamine] | 1.56 (≈ 4.03 µM) | 0.78 (≈ 2.01 µM)
32 | Cc1ccc(Oc2ccc(Cc3cc(-c4ccc(N)nc4N)on3)s2)cc1 [Example 106, 3-(3-(5-p-Tolyloxy-thiophen-2-ylmethyl)-isoxazol-5-yl)-pyridin-2,6-diamine] | 0.78 (≈ 2.06 µM) | 0.2 (≈ 0.528 µM)
33 | Nc1ccc(-c2cc(Cc3ccc(OCc4ccncc4)cc3)no2)c(N)n1 [Example 107, 3-(3-(4-(Pyridin-4-ylmethoxy)-benzyl)-isoxazol-5-yl)-pyridin-2,6-diamine] | 0.78 (≈ 2.09 µM) | 0.78 (≈ 2.09 µM)
34 | Nc1ccc(-c2cc(Cc3ccc(OCc4cccnc4)cc3)no2)c(N)n1 [Example 108, 3-(3-(4-(Pyridin-3-ylmethoxy)-benzyl)-isoxazol-5-yl)-pyridin-2,6-diamine] | 1.56 (≈ 4.18 µM) | 3.13 (≈ 8.38 µM)
35 | Nc1ccc(-c2cc(Cc3ccc(COc4cc(F)ccn4)cc3)no2)c(N)n1 [Example 117, 3-(3-(4-(4-Fluoro-pyridin-2-yloxymethyl)-benzyl)-isoxazol-5-yl)-pyridin-2,6-diamine] | 1.56 (≈ 3.99 µM) | 0.78 (≈ 1.99 µM)
36 | Nc1ccc(-c2cc(Cc3cccc(OCc4ccccn4)c3)no2)c(N)n1 [Example 118, 3-(3-(3-(Pyridin-2-ylmethoxy)-benzyl)-isoxazol-5-yl)-pyridin-2,6-diamine] | 0.78 (≈ 2.09 µM) | 3.13 (≈ 8.38 µM)
37 | Nc1ccc(-c2cc(Cc3cccc(OCc4ccccc4)c3)no2)c(N)n1 [Example 119, 3-(3-(3-Benzyloxy-benzyl)-isoxazol-5-yl)-pyridin-2,6-diamine] | 0.39 (≈ 1.05 µM) | 0.78 (≈ 2.09 µM)
38 | Nc1ccc(-c2cc(Cc3ccc(Oc4ccccc4)cn3)no2)c(N)n1 [Example 121, 3-(3-(5-Phenoxy-pyridin-2-ylmethyl)-isoxazol-5-yl)-pyridin-2,6-diamine] | 0.39 (≈ 1.09 µM) | 0.78 (≈ 2.17 µM)
